Tests used:
[1] = target: T1, Nitric oxide synthase, inducible (Mus musculus, UniProt P29477); experiment: Compound was tested for its inhibitory activity against macrophage NO2- synthesis
T1 sequence (P29477 whole entry): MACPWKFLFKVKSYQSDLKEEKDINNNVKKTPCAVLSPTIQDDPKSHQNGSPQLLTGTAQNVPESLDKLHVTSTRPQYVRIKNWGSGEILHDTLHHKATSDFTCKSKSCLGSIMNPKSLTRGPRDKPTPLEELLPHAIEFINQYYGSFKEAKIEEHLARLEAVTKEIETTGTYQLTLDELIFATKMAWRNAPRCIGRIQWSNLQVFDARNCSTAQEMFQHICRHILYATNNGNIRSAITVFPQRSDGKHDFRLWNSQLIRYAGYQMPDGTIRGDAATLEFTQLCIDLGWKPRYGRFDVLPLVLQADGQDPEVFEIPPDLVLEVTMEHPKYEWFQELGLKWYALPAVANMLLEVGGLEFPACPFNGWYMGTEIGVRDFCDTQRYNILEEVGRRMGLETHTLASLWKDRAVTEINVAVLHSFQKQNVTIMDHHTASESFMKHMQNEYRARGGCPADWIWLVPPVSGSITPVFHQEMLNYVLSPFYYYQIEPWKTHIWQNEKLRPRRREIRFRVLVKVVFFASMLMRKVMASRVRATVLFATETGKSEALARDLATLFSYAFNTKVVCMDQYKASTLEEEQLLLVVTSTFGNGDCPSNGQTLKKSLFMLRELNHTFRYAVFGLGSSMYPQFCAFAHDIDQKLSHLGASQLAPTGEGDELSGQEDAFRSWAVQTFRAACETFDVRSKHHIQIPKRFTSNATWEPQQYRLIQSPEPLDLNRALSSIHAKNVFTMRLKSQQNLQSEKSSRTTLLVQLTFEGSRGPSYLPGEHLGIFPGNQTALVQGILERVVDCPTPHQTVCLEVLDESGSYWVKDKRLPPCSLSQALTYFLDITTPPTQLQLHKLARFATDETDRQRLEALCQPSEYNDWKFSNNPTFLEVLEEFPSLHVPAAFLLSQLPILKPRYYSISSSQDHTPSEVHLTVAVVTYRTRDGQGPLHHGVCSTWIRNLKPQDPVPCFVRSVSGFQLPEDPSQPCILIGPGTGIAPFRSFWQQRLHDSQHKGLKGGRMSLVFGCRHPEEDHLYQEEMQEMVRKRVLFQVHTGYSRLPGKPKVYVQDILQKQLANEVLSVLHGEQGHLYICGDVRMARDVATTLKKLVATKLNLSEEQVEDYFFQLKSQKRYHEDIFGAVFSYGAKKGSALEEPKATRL

Nitric oxide synthase 3 = target: T2, Nitric oxide synthase 3 (Bos taurus, UniProt P29473); experiment: Compound was tested for its inhibitory activity against endothelial NO2- synthesis
T2 sequence (P29473 whole entry): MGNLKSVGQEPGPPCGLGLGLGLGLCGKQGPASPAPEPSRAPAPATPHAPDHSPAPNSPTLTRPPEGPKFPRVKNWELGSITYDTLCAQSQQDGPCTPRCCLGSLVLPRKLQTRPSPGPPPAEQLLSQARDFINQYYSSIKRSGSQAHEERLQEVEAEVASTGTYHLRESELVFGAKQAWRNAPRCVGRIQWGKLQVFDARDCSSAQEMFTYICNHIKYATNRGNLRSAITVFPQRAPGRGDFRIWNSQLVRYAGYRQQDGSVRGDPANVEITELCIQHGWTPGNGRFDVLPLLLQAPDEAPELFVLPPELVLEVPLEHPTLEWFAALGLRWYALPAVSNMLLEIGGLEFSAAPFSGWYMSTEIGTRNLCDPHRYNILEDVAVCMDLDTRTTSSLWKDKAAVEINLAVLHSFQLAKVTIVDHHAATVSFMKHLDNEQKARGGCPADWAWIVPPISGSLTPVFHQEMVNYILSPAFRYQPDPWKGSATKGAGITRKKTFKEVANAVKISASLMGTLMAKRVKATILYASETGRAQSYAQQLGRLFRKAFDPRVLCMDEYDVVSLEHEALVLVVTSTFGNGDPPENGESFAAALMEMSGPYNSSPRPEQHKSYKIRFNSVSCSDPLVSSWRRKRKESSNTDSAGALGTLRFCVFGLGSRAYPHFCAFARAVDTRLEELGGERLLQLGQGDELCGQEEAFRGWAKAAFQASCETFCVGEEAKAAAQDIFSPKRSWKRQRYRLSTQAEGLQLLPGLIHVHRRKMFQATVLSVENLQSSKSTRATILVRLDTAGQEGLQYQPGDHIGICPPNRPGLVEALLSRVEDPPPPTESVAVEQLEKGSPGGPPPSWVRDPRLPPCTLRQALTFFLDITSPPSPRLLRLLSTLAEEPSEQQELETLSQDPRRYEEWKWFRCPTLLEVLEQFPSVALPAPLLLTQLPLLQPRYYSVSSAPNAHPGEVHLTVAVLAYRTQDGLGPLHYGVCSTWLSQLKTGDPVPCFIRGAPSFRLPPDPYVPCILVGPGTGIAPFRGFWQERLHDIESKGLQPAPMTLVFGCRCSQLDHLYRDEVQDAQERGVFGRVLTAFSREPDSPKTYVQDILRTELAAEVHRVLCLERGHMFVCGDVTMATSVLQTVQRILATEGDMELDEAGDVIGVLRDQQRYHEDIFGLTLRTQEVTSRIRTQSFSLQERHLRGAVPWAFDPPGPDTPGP

SMILES	IC50 [1]	IC50 (Nitric oxide synthase 3)
CNC(N)NCCCC(N)C(=O)O (configuration not stated)	60 µM	–
COC(=O)[C@@H](N)CCCNC(=N)N[N+](=O)[O-] [L-NAME]	–	100 µM
